According to the Bradley open melting point set (2014):
Several values for one entry are separate records, joined by “and”; a condition that tells them apart may be missing. Equal values may be shown once.

Row | melting point | Structure (SMILES)
1 | 60 °C | CC(CN1c2ccccc2Sc2ccccc21)N(C)C (stereo not given) [promethazine]
2 | 165 °C | NC(=O)c1ccccc1Cc1ccccc1 [o-benzylbenzamide]
3 | 130 °C | OB(O)c1cccs1 [thiophene-2-boronic acid]
4 | 175 °C | CC[C@H](C)C(=O)O[C@H]1C[C@@H](C)C=C2C=C[C@H](C)[C@H](CC[C@@H]3C[C@@H](O)CC(=O)O3)[C@H]21 [Lovastatin]
5 | 131 °C | COC(=O)c1ccc(O)cc1 [methylparaben]
6 | 7 °C | C1CCCCC1 [cyclohexane]
7 | 134 °C | COC(=O)[C@@H](N)Cc1ccc(O)cc1 [Methyl L-tyrosinate]
8 | 62.5 °C | CCCCCCCCCCCCCCCC(=O)O [Palmitic acid]
9 | 105 °C | Cc1ccccc1C(=O)O [o-toluic acid]
10 | 90 °C | ON=C1/CCCCC1 [N-Hydroxycyclohexanimine]
11 | 96 °C | CCCOC(=O)c1ccc(O)cc1 [Propyl 4-hydroxybenzoate]
12 | 55.1 °C | CCCCCCCCCCCCCC(=O)O [Myristic acid]
13 | 282 °C | C[C@]12CC[C@@H]3c4ccc(O)cc4CC[C@H]3[C@@H]1C[C@@H](O)[C@@H]2O [estriol]
14 | 182 °C | O=C(c1ccccc1)C(c1ccccc1)(c1ccccc1)c1ccccc1 [benzopinacolone]
15 | 148 °C (3×) and 149 °C | CC(C)CCC[C@@H](C)[C@H]1CC[C@H]2[C@@H]3CC=C4C[C@@H](O)CC[C@]4(C)[C@H]3CC[C@]12C [cholesterol]
16 | -58 °C | CC(C)(C)c1ccccc1 [tert-butylbenzene]
17 | 210 °C | O=C(O)C(O)C(O)C(=O)O (stereo not given) [Tartaric acid]
18 | 0 °C | CCCCCCCCN [octylamine]

Row | melting point | Structure (SMILES)
19 | 40 °C | CCCCCCCCCCCCSCCCCCCCCCCCC [di-n-dodecyl sulfide]
20 | 11 °C | O=Cc1ccccc1Cl [o-chlorobenzaldehyde]
21 | 12 °C | CC(=O)Oc1cccc(C)c1 [m-tolyl_acetate]
22 | -2 °C | CC(O)CN (racemic) [dl-1-amino-2-propanol]
23 | 166 °C | CC(=O)Nc1cccc2c(N)cccc12 [N-(5-aminonaphthalen-1-yl)acetamide]
24 | 121 °C | Cc1cc(C)c(C(=O)C(=O)O)c(C)c1 [mesitylglyoxylic acid]
25 | 32 °C | CCCCCCCCCC(=O)O [decanoic_acid]
26 | 172 °C | Cc1ccc(S(=O)(=O)NC(=O)NN2CCCCCC2)cc1 [Tolazamide]
27 | 110 °C | CCN(CC)C(=O)Nc1ccc(OCC(O)CNC(C)(C)C)c(C(C)=O)c1 (stereo not given) [celiprolol]
28 | 54 °C | CCCCC[C@H]1CC[C@H](C(=O)O)CC1 [trans-4-n-pentylcyclohexanecarboxylic acid]
29 | 67 °C | CCCCC[C@H](O)/C=C/[C@H]1[C@H](O)CC(=O)[C@@H]1C/C=C\CCCC(=O)O [prostaglandin E2]
30 | -23 °C | COC(=O)CC#N [methyl cyanoacetate]
31 | 114 °C | COC(=O)c1ccc(N)cc1 [methyl 4-aminobenzoate]
32 | 255 °C | c1ccc2c(c1)ccc1c3ccccc3ccc21 [chrysene]
33 | 200 °C | Cc1cc(C)nc(NS(=O)(=O)c2ccc(N)cc2)n1 [sulfamethazine]
34 | 6 °C | c1ccc(C2CCCCC2)cc1 [cyclohexylbenzene]
35 | 56 °C | CCOC(=O)c1cccc(C#N)c1 [ethyl_m-cyanobenzoate]

The next lines start with the compound.

Row | Structure (SMILES) | melting point
36 | CCCC#N [butyronitrile] | -112 °C
37 | O=C(c1ccccc1)c1ccccn1 [2-benzoylpyridine] | 43 °C
38 | CCCI [1-Iodopropane] | -101 °C
39 | Cc1cccc([N+](=O)[O-])c1C [3-nitro-1,2-dimethylbenzene] | 9 °C
40 | CCCCCCC(O)CCCCCCCCCCC(=O)O (stereo not given) [12-hydroxystearic acid] | 75 °C
41 | CC(C)=O [acetone] | -94 °C
42 | O=Cc1ccccc1C(=O)O [2-carboxybenzaldehyde] | 99 °C
43 | Nc1cc(Cl)ccc1Cl [2,5-dichloroaniline] | 50 °C
44 | CC(=O)Nc1ccc(N)cn1 [2-acetamido-5-aminopyridine] | 149 °C
45 | N/C(N)=N/c1nc(CSCCC(N)=N/S(N)(=O)=O)cs1 [Famotidine] | 164 °C
46 | Clc1ccc(Cl)c(-c2cc(Cl)c(Cl)cc2Cl)c1 [PCB-101] | 77 °C
47 | COc1ccc(N/N=C(\C#N)c2nc(-c3ccccc3)cs2)cc1 | 151 °C
48 | O=C(CCCN1CCC(O)(c2ccc(Cl)cc2)CC1)c1ccc(F)cc1 [Haloperidol] | 148 °C
49 | CC(=O)Nc1ccc(Br)c(C(F)(F)F)c1 [4'-bromo-3'-(trifluoromethyl)acetanilide] | 118 °C
50 | Oc1ccc(Cl)c(Cl)c1 [3,4-Dichlorophenol] | 67 °C
51 | Cc1cccc(C#N)c1 [m-tolunitrile] | -23 °C
52 | CN(C)c1ccc(/C=C/C=O)cc1 [(2E)-3-[4-(Dimethylamino)phenyl]acrylaldehyde] | 135 °C
53 | Clc1cc(Cl)c(-c2ccc(Cl)c(Cl)c2Cl)cc1Cl [PCB-138] | 79 °C
54 | O=C(O)c1ccc([N+](=O)[O-])cc1 [4-nitrobenzoic acid] | 242 °C
55 | CC(COc1ccccc1)NC(C)C(O)c1ccc(O)cc1 (stereo not given) [Isolait] | 103 °C
56 | O=C(O)/C=C/c1ccc(F)cc1 [4-fluorocinnamic acid] | 209 °C
57 | C1COCOC1 [1,3-Dioxane] | -42 °C
58 | O=Cc1cc([N+](=O)[O-])cc([N+](=O)[O-])c1O [3,5-dinitrosalicylaldehyde] | 73 °C
59 | OB(O)c1cccnc1Cl [2-chloropyridine-3-boronic acid] | 160 °C

Row | Structure (SMILES) | melting point
60 | CC(C)Br [2-bromopropane] | -89 °C
61 | CCCCCCCC(=O)O [Caprylic acid] | 16.3 °C
62 | BrCCCCOc1ccccc1 [(4-bromobutoxy)benzene] | 42 °C
63 | CC(=O)OC[C@H]1O[C@@H](S)[C@H](OC(C)=O)[C@@H](OC(C)=O)[C@@H]1OC(C)=O [1-thio-beta-D-glucose tetraacetate] | 116 °C
64 | C=CCCCCCCCC [1-decene] | -66 °C
65 | Nc1ccccc1S [2-aminothiophenol] | 19 °C
66 | Cc1ccc2sccc2c1 [5-methylbenzo[b]thiophene] | 34 °C
67 | ClCc1ccccc1CCl [a,a'-dichloro-o-xylene] | 56 °C
68 | O=C(Cl)c1ccc([N+](=O)[O-])cc1 [4-Nitrobenzoyl chloride] | 75 °C
69 | CCC(C)C1(CC)C(=O)NC(=O)NC1=O (stereo not given) [secbutabarbital] | 166 °C
70 | O=S(=O)(Nc1ccc(Cl)cc1)c1ccccc1 [4-chloro-1-phenylsulfonamidobenzene] | 122 °C
71 | O=C(CBr)c1ccc2c(c1)OCCCO2 [7-bromoacetyl-3,4-dihydro-1,5-benzodioxepin] | 76 °C
72 | c1ccc2c(c1)CCO2 [2,3-dihydrobenzo[b]furan] | -21 °C
73 | C[C@]12CC[C@H]3[C@@H](CCC4=CC(=O)CC[C@@]43C)[C@@H]1CC[C@@H]2C(=O)CO [Deoxycorticosterone] | 142 °C
74 | CCCC(=O)CCC [4-heptanone] | -33 °C
75 | CNCCO [2-(Methylamino)ethanol] | -4.5 °C
76 | Cc1cc(N)ccc1Br [4-bromo-3-methylaniline] | 81 °C
77 | Cc1ccc(/C=C(\Oc2cccc(C)c2)c2nc3ccccc3s2)cc1 | 138 °C
78 | Cc1ccc(C#N)cc1 [4-Methylbenzonitrile] | 29 °C
79 | CC(C)CC(C)(C)C [2,2,4-trimethylpentane] | -107 °C
80 | CC(C)(C)S [2-methyl-2-propanethiol] | 1 °C
81 | O/N=C(\c1ccccc1)C(O)c1ccccc1 (stereo not given) [(2E)-2-(Hydroxyimino)-1,2-diphenylethanol] | 154 °C
82 | Nc1c(Br)cc([N+](=O)[O-])cc1Br [2,6-dibromo-4-nitroaniline] | 207 °C
83 | NCC(=O)O [Glycine] | 240 °C

Row | Structure (SMILES) | melting point
84 | CCOC(=O)c1ccc(N)cc1 [Ethyl 4-aminobenzoate] | 89 °C
85 | NC1=NCC(c2ccccc2)O1 (stereo not given) [aminorex] | 136 °C
86 | CC(CCC(=O)O)(c1ccc(O)cc1)c1ccc(O)cc1 [4,4-bis(4-hydroxyphenyl)valeric acid] | 173 °C
87 | CC(=O)C(C)(C)C [3,3-dimethyl-2-butanone] | -52 °C
88 | Nc1ccc(S(=O)(=O)Nc2ccccn2)cc1 [4-Amino-N-(pyridin-2-yl)benzenesulfonamide] | 192 °C
89 | CCc1ccccc1B(O)O [2-ethylbenzeneboronic acid] | 97 °C
90 | CCCC(C)S (stereo not given) [2-pentanethiol] | -112 °C
91 | Cc1ccc(Cl)c(Cl)c1 [3,4-dichlorotoluene] | -15 °C
92 | NC(=O)CS(=O)C(c1ccccc1)c1ccccc1 (stereo not given) [Modafinil] | 165 °C
93 | C#CCCO [3-butyn-1-ol] | -63 °C
94 | O=[N+]([O-])c1ccc(CCl)cc1 [4-nitrobenzyl_chloride] | 73 °C
95 | OB(O)c1cc(F)c(F)c(F)c1F [2,3,4,5-tetrafluorobenzeneboronic acid] | 253 °C
96 | O=C1/C(=N\Nc2cccc(F)c2)C(C(F)(F)F)=NN1c1ccccc1 | 106 °C
97 | C=Cc1ccc(Cl)cc1 [4-chlorostyrene] | -16 °C
98 | OC(c1ccccc1)(c1ccccc1)C(O)(c1ccccc1)c1ccccc1 [1,1,2,2-Tetraphenylethane-1,2-diol] | 171 °C
99 | O=C(O)COc1ccccc1 [phenoxyacetic_acid] | 100 °C
100 | O=[N+]([O-])c1cccc(I)c1 [1-iodo-3-nitrobenzene] | 38 °C
101 | C#CC(C)(C)O [2-methyl-3-butyn-2-ol] | 3 °C
102 | Cn1nc(-c2ccccc2)cc1N [5-amino-1-methyl-3-phenyl-1h-pyrazole] | 127 °C
103 | CCOC(=O)/C(=N/Nc1ccccc1[N+](=O)[O-])C(C)=O | 74 °C
104 | CCCCCCCCCCl [1-chlorononane] | -39 °C
105 | CC(C)Nc1ccc(Nc2ccccc2)cc1 [N-isopropyl-n'-phenyl-p-phenylenediamine] | 77 °C
